For one compound, MIC results are on record in patent publication US4185015A, “Methoxymethyl 6-[D-2,2-dimethyl-4-(4-hydroxyphenyl)-5-oxo-1-imidazolyl]penicillanate” (priority 1977, dated 1980).

Where two headings read alike, the source gives them in different places. Some results are limits rather than exact numbers.

What all share (test): MIC in Nutrient Broth (Table III)
Common to all, as to type: cell-based

Assay [1] relates to Str. pyogenes. The conditions noted are these: Streptococcus pyogenes, 10^-3 dilution of overnight broth culture, 45% AAB, 5% serum, 50% broth. An excerpt:
(§1) Organism in Nutrient Broth
(§2) *45% AAB 5% serum 50% broth listed above,
(§3) **Dilution of overnight broth culture

In assay [2] the test system is Str. pneumoniae. The note with it: Streptococcus pneumoniae, 10^-3 dilution of overnight broth culture, 45% AAB, 5% serum, 50% broth.
Source text: as §1, §2, §3

Assay [3] has as its system Ent. cloacae. The conditions noted are these: Enterobacter cloacae, Ent. cloacae (10^-4).
Source text: as §1, §3

For assay [4], the system named is Ser. marcescens. The note with it: Serratia marcescens; Ser. marcescens (10^-4).
Source text: as §1, §3

Assay [5] has as its system Ps. aeruginosa. The note with it: Pseudomonas aeruginosa.
Source text: as §1, §3

Assay [6] concerns S. aureus. The conditions noted are these: Staphylococcus aureus; S. aureus+50% serum (10^-4).
Source text: as §1, §3

Assay [7] relates to Pr. morganii. The conditions noted are these: Morganella morganii.
Source text: as §1, §3

The test system of assay [8] is Pr. mirabilis. The conditions noted are these: Proteus mirabilis; Pr. mirabilis (10^-4).
Source text: as §1, §3

Assay [9] concerns E. coli Juhl. The note with it: Escherichia coli; E. coli Juhl (10^-4).
Source text: as §1, §3

The subject of assay [10] is Sal. enteritidis. The conditions noted are these: Salmonella enterica; Sal. enteritidis (10^-4).
Source text: as §1, §3

For assay [11], the system named is S. aureus BX1633. The conditions noted are these: Staphylococcus aureus.
Source text: as §1, §3

Assay [12] relates to S. aureus Smith. The note with it: Staphylococcus aureus, S. aureus Smith (10^-4).
Source text: as §1, §3

Assay [13] deals with E. coli. The conditions noted are these: Escherichia coli; E. coli (10^-4).
Source text: as §1, §3

Assay [14] deals with K. pneumoniae. The note with it: Klebsiella pneumoniae.
Source text: as §1, §3

Assay [15] deals with S. aureus Meth.-Res. The conditions noted are these: Staphylococcus aureus.
Source text: as §1, §3

One may read the MIC as the least concentration at which growth counts as inhibited. Turning to `CC1(C)S[C@@H]2[C@H](NC(=O)[C@H](N)c3ccccc3)C(=O)N2[C@H]1C(=O)O` [Sodium Ampicillin], the minimal inhibitory concentration (MIC) is 8 ng/mL in [1]; 0.016 µg/mL in [2]; greater than 125 µg/mL in assay [3] (first of three lines); 32 µg/mL in assay [3] (second of three lines, read-out: MIC); 63 µg/mL in assay [3] (third of three lines, read-out: MIC); 32 µg/mL in assay [4]. The MIC was greater than 125 µg/mL in [5]; 0.13 µg/mL in [6]; greater than 125 µg/mL in assay [7]; 0.25 µg/mL in [8]; 2 µg/mL in assay [9]; 0.13 µg/mL in assay [10]. For the same compound, the minimal inhibitory concentration (MIC) was greater than 125 µg/mL in assay [11] (BX1633); 32 µg/mL in [11] (BX1633, S. aureus BX1633 (10^-3), read-out: MIC); 0.06 µg/mL in assay [12]; 16 µg/mL in [13]; 125 µg/mL in assay [14]; 0.5 µg/mL in assay [14] (K. pneumoniae (10^-4), first of two lines, read-out: MIC). The MIC is greater than 125 µg/mL in [15] and 32 µg/mL in assay [15] (S. aureus Meth.-Res. (10^-3), 37° C., read-out: MIC).
